{"source": "patent US7575908B1", "about": "“Immobilization method for producing active α1-acid glycoprotein” (Board of Regents of the University of Nebraska, priority 2005, dated 2009)", "assay_type_in_all_cases": "binding", "key": {"[1]": {"test": "Effects of periodate oxidation on activity of immobilized α1-acid glycoprotein (chromatographic studies)", "conditions": "37° C., pH 7.4 PBS", "procedure": "FIG. 2A illustrates an exemplary method for preparing oxidized α1-acid glycoprotein. The conditions chosen for this reaction vary according to the final degree of oxidation desired. […] This mixture was allowed to react for 10 to 15 minutes at room temperature in the dark and quenched by adding 0.25 mL ethylene glycol per milliliter of sample. After this new mixture had reacted for 2 minutes, it was put into a dialysis bag at 4° C. for 2 hours against 2 liters pH 7.0, 20 mM acetate buffer containing 0.15 M sodium chloride. This was followed by three additional two-hour dialysis cycles against 2 liter portions of pH 7.0, 0.10 M potassium phosphate buffer.\nOxidized α1-acid glycoprotein was immobilized to hydrazide-activated silica by a procedure illustrated in FIG. 2C. In exemplary studies, a 5 mL portion of pH 7.0, 0.10 M phosphate buffer containing 1.5 mg/mL oxidized α1-acid glycoprotein was mixed with 0.03 grams of hydrazide-activated silica. This mixture was sonicated under aspirator vacuum for 10 minutes to remove any air bubbles from the suspension. It was then placed onto a shaker and allowed to react at 4° C. for up to seven days, with more than two days being optimum. The reaction was stopped by centrifuging the reaction mixture and removing the supernatant. The support was next washed several times with pH 7.0, 0.10 M phosphate buffer, followed by several additional washings with deionized water. Any hydrazide groups remaining on this support were removed by adding a 200-fold excess of glyceraldehyde versus the support's original hydrazide content. This mixture was shaken at 4° C. for 6 hours. The support was then washed several times with pH 7.0, 0.10 M phosphate buffer. The amount of immobilized α1-acid glycoprotein was determined by comparing the final and initial concentrations of α1-acid glycoprotein in the reaction slurry, using absorbance measurements at 280 nm.\n(§1) The α1-acid glycoprotein and hydrazide-activated supports were downward slurry-packed at 28 MPa (4000 psi) into 50×4.1 mm I.D. stainless steel columns. These columns were enclosed in water jackets for temperature control. All studies, except those examining the temperature dependence of propranolol—α1-acid glycoprotein binding, were performed at 37° C. The mobile phases and packing solutions were prepared using pH 7.4 phosphate buffered saline (PBS, composition: 0.013 M potassium dihydrogen phosphate, 0.053 M disodium hydrogen phosphate and 0.133 M sodium chloride). Prior to use, all mobile phases were filtered through a 0.45 μm cellulose acetate filter and degassed under vacuum for 10 min. Elution of R- and S-propranolol was detected by monitoring the absorbance at 225 nm. Zonal elution studies were performed on the α1-acid glycoprotein column by applying pH 7.4 phosphate buffer solution containing up to 20 μM of the desired competing agent while making 20 μL injections of R-propranolol or S-propranolol onto the column. At each concentration of competing agent, three replicate injections of the desired analyte were made. The propranolol samples were prepared by dissolving 5.0 μM R- or S-propranolol in the appropriate mobile phase. All mobile phases containing propranolol were prepared using the individual enantiomers or propranolol. The flow rate ranged from 0.8 to 1.5 mL/min, with no significant changes in the retention factors being noted under this range of conditions.\nThe retention times for propranolol were calculated using a B/A0.5 method. The column void volume was determined by making injections of sodium nitrate onto a column containing only hydrazide-activated silica while monitoring the absorbance at 205 nm. All elution times were corrected for the extra-column volume of the chromatographic system, as determined by making injections of R-propranolol or S-propranolol when no column was present. […]"}, "α1-acid glycoprotein [2]": {"test_system": "α1-acid glycoprotein", "test": "Retention of R- and S-propranolol on α1-acid glycoprotein column as a function of pH", "conditions": "for decrease of retention factor: pH decreased from 7.4 to 4.8", "procedure": "as §1\n(§2) The retention times for propranolol were calculated using a B/A0.5 method. The column void volume was determined by making injections of sodium nitrate onto a column containing only hydrazide-activated silica while monitoring the absorbance at 205 nm. All elution times were corrected for the extra-column volume of the chromatographic system, as determined by making injections of R-propranolol or S-propranolol when no column was present. A correction for the small amount of non-specific binding between propranolol and the hydrazide support was made by measuring the retention factors for this drug on a column equivalent in size to the α1-acid glycoprotein column, but containing only hydrazide-activated silica. This was measured at each propranolol concentration in the mobile phase and accounted for 3-15% of the retention factors noted for propranolol on the α1-acid glycoprotein column. […] The column was stored in pH 7.4 PBS buffer at 4° C. when not in use.\nThe effect of other separation conditions such as pH were also evaluated. For instance, as the pH decreased from 7.4 to 4.8, the retention factor for R-propranolol decreased from 132 to 17.8 (87%), while the retention factor for S-propranolol decreased from 167 to 17.8 (89%)."}, "α1-acid glycoprotein [3]": {"test_system": "α1-acid glycoprotein", "test": "Self-competition zonal elution of R- and S-propranolol on immobilized α1-acid glycoprotein HPLC column", "conditions": "pH 7.4 phosphate buffered saline, immobilized AGP column", "procedure": "as §1, §2\nAll of the results presented in Table 2 were generated by performing self-competition zonal elution studies at temperatures ranging from 5° C. to 37° C. in pH 7.4 phosphate buffered saline. The numbers in parentheses represent a range of ± one standard deviation."}, "[4]": {"conditions": "AGP oxidized with 10 mM periodate"}, "[5]": {"conditions": "AGP oxidized with 20 mM periodate"}, "[6]": {"conditions": "AGP oxidized with 50 mM periodate"}}, "data": [{"molecule": "α1-acid glycoprotein [AGP]", "values": [{"measurement": "Binding capacity", "setting": "[1]; [4]", "value": "6.8 (±0.2) mg/g silica"}, {"measurement": "Specific activity", "setting": "[1]; [4]", "value": "0.67 (±0.02) mg/mg AGP"}, {"measurement": "Binding capacity", "setting": "[1]; [5]", "value": "6.3 (±0.3) mg/g silica"}, {"measurement": "Specific activity", "setting": "[1]; [5]", "value": "0.40 (±0.02) mg/mg AGP"}, {"measurement": "Binding capacity", "setting": "[1]; [6]", "value": "6.8 (±0.3) mg/g silica"}, {"measurement": "Specific activity", "setting": "[1]; [6]", "value": "0.47 (±0.03) mg/mg AGP"}]}, {"molecule": "CC(C)NC[C@@H](O)COc1cccc2ccccc12", "note": "[R-Propranolol]", "values": [{"measurement": "retention factor", "setting": "α1-acid glycoprotein [2]; pH 4.8, AGP column", "value": 17.8}, {"measurement": "retention factor", "setting": "α1-acid glycoprotein [2]; pH 7.4, AGP column", "value": 132}, {"measurement": "decrease of retention factor", "setting": "α1-acid glycoprotein [2]", "value": 87, "unit": "%"}, {"measurement": "Association equilibrium constant, Ka", "setting": "α1-acid glycoprotein [3]; 5° C.", "value": "8 (±2) × 10^6 M^−1"}, {"measurement": "Association equilibrium constant, Ka", "setting": "α1-acid glycoprotein [3]; 15° C.", "value": "7 (±1) × 10^6 M^−1"}, {"measurement": "Association equilibrium constant, Ka", "setting": "α1-acid glycoprotein [3]; 25° C.", "value": "3.9 (±0.2) × 10^6 M^−1"}, {"measurement": "Association equilibrium constant, Ka", "setting": "α1-acid glycoprotein [3]; 37° C.", "value": "2.7 (±0.2) × 10^6 M^−1"}]}, {"molecule": "CC(C)NCC(O)COc1cccc2ccccc12", "note": "(centres unmarked) [S-Propranolol]", "values": [{"measurement": "retention factor", "setting": "α1-acid glycoprotein [2]; pH 4.8, AGP column", "value": 17.8}, {"measurement": "retention factor", "setting": "α1-acid glycoprotein [2]; pH 7.4, AGP column", "value": 167}, {"measurement": "decrease of retention factor", "setting": "α1-acid glycoprotein [2]", "value": 89, "unit": "%"}, {"measurement": "Association equilibrium constant, Ka", "setting": "α1-acid glycoprotein [3]; 5° C.", "value": "11 (±3) × 10^6 M^−1"}, {"measurement": "Association equilibrium constant, Ka", "setting": "α1-acid glycoprotein [3]; 15° C.", "value": "9 (±2) × 10^6 M^−1"}, {"measurement": "Association equilibrium constant, Ka", "setting": "α1-acid glycoprotein [3]; 25° C.", "value": "5.2 (±1.7) × 10^6 M^−1"}, {"measurement": "Association equilibrium constant, Ka", "setting": "α1-acid glycoprotein [3]; 37° C.", "value": "4.2 (±0.3) × 10^6 M^−1"}]}]}
